Values quoted from earlier work in patent publication US20090263333A1, “Pharmaceutical compounds and compositions” (Cipla Limited, priority 2004, published 2009).

Settings: dose comparison with racemic salbutamol

Structure (SMILES): CC(C)(C)NC[C@H](O)c1ccc(O)c(CO)c1 [Levosalbutamol, levosalbutamol]
- efficacy relative to racemic salbutamol: comparable efficacy at nearly one-fourth the dose of racemic salbutamol
